Experiment [1] relates to Hepatoma 22 (H22) solid tumors. The experiment can be described thus: Inhibition of Hepatoma 22 (H22) solid tumors in mice, peptides with different number of copies. It counts as in vivo, Mus Musculus Balb/c female mice. The conditions noted are these: positive medicine, 20 mg/kg, intraperitoneal injection, 1 time/day, 5 days.
Experiment [2] has as its system Hepatoma 22 (H22) solid tumors. Description: Inhibition of Hepatoma 22 (H22) solid tumors in mice, five-copy peptides. It is filed as in vivo, Mus Musculus Balb/c female mice. As to conditions: positive medicine, 20 mg/kg, intraperitoneal injection, 1 time/day, 5 days.

With `O=c1[nH]cc(F)c(=O)[nH]1` [Peptide 5-FU, 5-fluorouracil], in experiment [1], the “Tumor inhibition rate (%)” value turned out to be 51.62% and the “Tumor weight” value is listed as 1.135 ± 0.248 g. In experiment [2], the “Average tumor weight” value is 1.135 ± 0.248 g and the “Tumor inhibition rate (%)” value is on record as 51.62%.
